Measured values taken from article PMC12860872, “Preclinical evaluation of DOTAGA.Glu.(FAPI)2 and DO3A.Glu.(FAPI)2 as theranostics with human dosimetry extrapolation to lutetium-177 and terbium-161 analogs” (European Journal of Nuclear Medicine and Molecular Imaging, 2025).
Values joined by “and” are separate entries in the source; they are usually repeats but may differ in a detail not shown here. Equal values may be shown once.

Experiment: Extrapolated human dosimetry (OLINDA/EXM, ICRP-89 phantoms)
Experimental: To address inter-animal variability, the TIACs for each source organ were calculated from both the mean nTACs and the nTACs obtainend from fitting the mean ± 1 standard deviation (SD) of the normalized time-activity data, providing upper and lower bounds.
The mice-to-human TIAC extrapolation accounted for species-specific differences in relative source organ masses, m(organ), as compared to the total body weight (WB), for the mice (m) and human (h) models respectively.
(§1) The human organ masses, m(organ)h, were obtained from ICRP-89 adult male and female reference phantoms, while the murine organ masses, m(organ)m, were derived from the standard MOBY mouse model. The extrapolated human TIACs, TIACh were entered in the OLINDA/EXM software to compute the absorbed doses to target organs and the effective dose for adult male, female, and gender-averaged human models. […]
The TIACs, for [177Lu]Lu-DOTAGA.Glu.(FAPI)2 and [177Lu]Lu-DO3A.Glu.(FAPI)2, were determined by time integration of the nTACs. To account for the inter-animal variability, the TIACs for each source organ were calculated using both the mean nTACs and the nTACs obtainend from fitting the mean ±1 standard deviation (SD) of the normalized time-activity data. This approach provided the upper and the lower bounds for the estimated TIACs.
The mice-to-human TIAC extrapolation was obtained considering the different (species-specific) relative source organ masses, m(organ), as compared to the total body weight (WB), for the mice (m) and human (h) models respectively.
as §1, with “the” for “ICRP-89”, “models phantoms defined in ICRP-89,” for “phantoms,”, “TIACs values, TIACh, for each source organ” for “TIACs, TIACh”, “input into the kinetic module of” for “entered in”, “software (version 2.1, HERMES Medical Solutions AB, Stockholm, Sweden)” for “software”

[1] = ICRP 89 Adult Female, extrapolated
[2] = ICRP 89 Adult Male, extrapolated

N#C[C@@H]1CC(F)(F)CN1C(=O)CNC(=O)c1ccnc2ccc(OCCCCNC(=O)CC[C@H](NC(=O)CN3CCN(CC(=O)[O-])CCN(CC(=O)[O-])CCN(CC(=O)[O-])CC3)C(=O)NCCCCOc3ccc4nccc(C(=O)NCC(=O)N5CC(F)(F)C[C@H]5C#N)c4c3)cc12.[161Tb+3] [[^161Tb]Tb-DO3A.Glu.(FAPI)2]
Absorbed dose (AD average) Adrenals [1]: 1.39E-02 mGy/Mbq
Absorbed dose (AD average) Brain [1]: 3.68E-02 mGy/Mbq
Absorbed dose (AD average) Breasts [1]: 3.54E-02 mGy/Mbq
Absorbed dose (AD average) Esophagus [1]: 3.67E-02 mGy/Mbq
Absorbed dose (AD average) Eyes [1]: 3.68E-02 mGy/Mbq
Absorbed dose (AD average) Gallbladder Wall [1]: 3.79E-02 mGy/Mbq
Absorbed dose (AD average) Heart Wall [1]: 3.39E-02 mGy/Mbq
Absorbed dose (AD average) Kidneys [1]: 3.48E-02 ± 0.001 mGy/Mbq and 3.48E-02 mGy/Mbq
Absorbed dose (AD average) Left colon [1]: 3.75E-02 mGy/Mbq
Absorbed dose (AD average) Liver [1]: 1.01E-01 ± 0.004 mGy/Mbq and 1.01E-01 mGy/Mbq
Absorbed dose (AD average) Lungs [1]: 5.78E-02 ± 0.01 mGy/Mbq and 5.78E-02 mGy/Mbq
Absorbed dose (AD average) Osteogenic Cells [1]: 8.70E-02 ± 0.003 mGy/Mbq and 8.70E-02 mGy/Mbq
Absorbed dose (AD average) Ovaries [1]: 3.75E-02 mGy/Mbq
Absorbed dose (AD average) Pancreas [1]: 3.59E-02 ± 0.001 mGy/Mbq and 3.59E-02 mGy/Mbq
Absorbed dose (AD average) Rectum [1]: 3.75E-02 mGy/Mbq
Absorbed dose (AD average) Red Marrow [1]: 4.37E-02 ± 0.002 mGy/Mbq and 4.37E-02 mGy/Mbq
Absorbed dose (AD average) Right colon [1]: 3.76E-02 mGy/Mbq
Absorbed dose (AD average) Salivary Glands [1]: 1.22E-01 ± 0.01 mGy/Mbq and 1.22E-01 mGy/Mbq
Absorbed dose (AD average) Small Intestine [1]: 3.72E-02 ± 0.002 mGy/Mbq and 3.72E-02 mGy/Mbq
Absorbed dose (AD average) Spleen [1]: 8.87E-02 ± 0.004 mGy/Mbq and 8.87E-02 mGy/Mbq
Absorbed dose (AD average) Stomach Wall [1]: 3.75E-02 mGy/Mbq
Absorbed dose (AD average) Thymus [1]: 3.72E-02 mGy/Mbq
Absorbed dose (AD average) Thyroid [1]: 3.64E-02 mGy/Mbq
Absorbed dose (AD average) Total Body [1]: 4.70E-02 ± 0.002 mGy/Mbq and 4.70E-02 mGy/Mbq
Absorbed dose (AD average) Urinary Bladder Wall [1]: 3.70E-02 mGy/Mbq
Absorbed dose (AD average) Uterus [1]: 3.73E-02 mGy/Mbq
Effective dose (average) [1]: 4.10E-02
Absorbed dose (AD average) Adrenals [2]: 1.05E-02 mGy/Mbq
Absorbed dose (AD average) Brain [2]: 2.80E-02 mGy/Mbq
Absorbed dose (AD average) Esophagus [2]: 2.84E-02 mGy/Mbq
Absorbed dose (AD average) Eyes [2]: 2.80E-02 mGy/Mbq
Absorbed dose (AD average) Gallbladder Wall [2]: 3.02E-02 mGy/Mbq
Absorbed dose (AD average) Heart Wall [2]: 2.78E-02 mGy/Mbq
Absorbed dose (AD average) Kidneys [2]: 2.84E-02 ± 0.001 mGy/Mbq and 2.84E-02 mGy/Mbq
Absorbed dose (AD average) Left colon [2]: 2.85E-02 mGy/Mbq
Absorbed dose (AD average) Liver [2]: 8.31E-02 ± 0.003 mGy/Mbq and 8.31E-02 mGy/Mbq
Absorbed dose (AD average) Lungs [2]: 4.73E-02 ± 0.01 mGy/Mbq and 4.73E-02 mGy/Mbq
Absorbed dose (AD average) Osteogenic Cells [2]: 8.97E-02 ± 0.003 mGy/Mbq and 8.97E-02 mGy/Mbq
Absorbed dose (AD average) Pancreas [2]: 2.88E-02 ± 0.001 mGy/Mbq and 2.88E-02 mGy/Mbq
Absorbed dose (AD average) Prostate [2]: 2.81E-02 mGy/Mbq
Absorbed dose (AD average) Rectum [2]: 2.84E-02 mGy/Mbq
Absorbed dose (AD average) Red Marrow [2]: 3.45E-02 ± 0.001 mGy/Mbq and 3.45E-02 mGy/Mbq
Absorbed dose (AD average) Right colon [2]: 2.86E-02 mGy/Mbq
Absorbed dose (AD average) Salivary Glands [2]: 1.00E-01 ± 0.01 mGy/Mbq and 1.00E-01 mGy/Mbq
Absorbed dose (AD average) Small Intestine [2]: 2.85E-02 ± 0.001 mGy/Mbq and 2.85E-02 mGy/Mbq
Absorbed dose (AD average) Spleen [2]: 7.27E-02 ± 0.003 mGy/Mbq and 7.27E-02 mGy/Mbq
Absorbed dose (AD average) Stomach Wall [2]: 2.84E-02 mGy/Mbq
Absorbed dose (AD average) Testes [2]: 2.72E-02 mGy/Mbq
Absorbed dose (AD average) Thymus [2]: 2.79E-02 mGy/Mbq
Absorbed dose (AD average) Thyroid [2]: 2.81E-02 mGy/Mbq
Absorbed dose (AD average) Total Body [2]: 3.70E-02 ± 0.002 mGy/Mbq and 3.70E-02 mGy/Mbq
Absorbed dose (AD average) Urinary Bladder Wall [2]: 2.81E-02 mGy/Mbq
Effective dose (average) (ICRP 89 Adult Male, extrapolated, in mSv/MBq (unit assumed)): 2.91E-02
higher tissue doses vs. the 177Lu-labeled analogs (human extrapolation, average over tissues): ~ 38%
